Test system: KRAS-mutant PDC complex spheroid viability
Assay: Anticancer human tumor 186277-243-T-J2-PDC patient-derived colon adenocarcinoma cell line growth inhibition [KRAS2]
Conditions: for IC50: curve of first compound; for viability, T/C: stronger effect = lower value
From the text: Multicellular complex tumor spheroid response to RAS pathway inhibitors in combination with a targeted agents in patient-derived cell lines with oncogenic KRAS variants from multiple cancer types
A high-throughput screen of multi-cell type tumor spheroids was designed to identify active combinations of targeted small molecules and KRAS pathway inhibitors. Complex spheroids include a stromal component modeled by human endothelial cells (HUVEC) and fibroblasts modeled by human mesenchymal stem cells (MSCs). The concentration ranges selected for each drug and investigational agent were based upon clinically achievable concentrations if the clinical Cmax of the agent was known.
Compounds. The drugs and investigational agents: BI-3406 (NSC825286), BAY-293 (NSC824723), batoprotafib (TNO155; NSC825523), sotorasib (AMG 510; NSC818433), MRTX1257 (NSC819558), elimusertib (BAY 1895344; NSC800525), molibresib (GSK525762; NSC774829), temuterkib (LY3214996; NSC803410), venetoclax (NSC766270), alisertib (NSC759677), olaparib (NSC753686), talazoparib (NSC767125), erdafitinib (NSC781556), ipatasertib (NSC767898), cabozantinib (NSC761068), nintedanib (NSC756659), abemaciclib (NSC768073), docetaxel (NSC628503), trametinib (NSC758246), and sapanisertib (NSC764658) were obtained from the National Cancer Institute (NCI) Developmental Therapeutics Program Chemical Repository. The FDA-approved anticancer drug set is available from the Developmental Therapeutics Program. […] The stock solutions were prepared in dimethyl sulfoxide (DMSO, Sigma-Aldrich, St. Louis, MO, cat. D2650) at 800-fold the tested concentration and stored at -70 degrees C prior to their use. All drugs and investigational agents were tested over a range starting from a high concentration at or near the clinical Cmax and decreasing in half-log increments. If the clinical Cmax for an agent had not been determined, the highest concentration tested was 10 microM.
Cell Culture. All cells were maintained in an incubator at 37 degrees C and 5% CO2 with 95% humidity. The PDC lines were cultured according to standard operating procedures established by the NCI PDMR (https://pdmr.cancer.gov/sops/default.htm). Briefly, all PDCs were thawed and cultured in Matrigel-coated flasks prepared with a working solution of 1X Ham's F-12 nutrient mix, without supplementation (Invitrogen, Waltham, MA, cat. 11765054), 100 U/mL penicillin-streptomycin (Invitrogen, cat. 15140122), and 2.5% Matrigel (Corning Inc., Corning, NY, cat. 354248) for the first three passages. All PDCs were cultured in complete DMEM/F-12 media containing advanced DMEM/F-12 (Invitrogen, cat. 12634028), 4.9% defined fetal bovine serum, heat inactivated (HyClone Laboratories Inc., Logan, UT, cat. SH30070.03HI), 389 ng/mL hydrocortisone (Sigma-Aldrich, cat. H4001), 9.7 ng/mL human EGF recombinant protein (Invitrogen, cat. PHG0313), 23.4 microg/mL adenine (Sigma-Aldrich, cat. A2786), 97.3 U/mL penicillin-streptomycin (Invitrogen, cat. 15140122), 1.9 mM L-glutamine (Invitrogen, cat. 25030081), and 9.7 microM Y-27632 dihydrochloride (Tocris Bioscience, Bristol, United Kingdom, cat. 1254). The PDCs were cultured in complete DMEM/F12 media without 9.7 microM Y-27632 dihydrochloride for at least two passages prior to the screen. The established cell line HOP-62 was cultured in RPMI 1640 medium, HEPES (Invitrogen, cat. 22400105) with 10% defined fetal bovine serum (HyClone Laboratories Inc., cat. SH30070.03) and 2 mM L-glutamine (Invitrogen, cat. 25030081). The pooled donor HUVEC were cultured in endothelial cell growth medium 2 (PromoCell, Heidelberg, Germany, cat. C-22011) and the hMSC were cultured in mesenchymal stem cell growth medium 2 (PromoCell, cat. C-28009). For all experiments, HUVEC and hMSC were used at passages </=5, while the malignant cell lines were used at passages </=15. […]

[1] = second compound 0.1 µM, first compound 0.0316 µM
[2] = second compound 0.1 µM, first compound 0.1 µM
[3] = second compound 0.1 µM, first compound 0.316 µM
[4] = second compound 0.1 µM, first compound 1 µM
[5] = second compound 0.1 µM, first compound 3.16 µM
[6] = second compound 0.1 µM, first compound 10 µM
[7] = second compound 0.316 µM, first compound 0.0316 µM
[8] = second compound 0.316 µM, first compound 0.1 µM
[9] = second compound 0.316 µM, first compound 0.316 µM
[10] = second compound 0.316 µM, first compound 1 µM
[11] = second compound 0.316 µM, first compound 3.16 µM
[12] = second compound 0.316 µM, first compound 10 µM
[13] = second compound 1 µM, first compound 0.0316 µM
[14] = second compound 1 µM, first compound 0.1 µM
[15] = second compound 1 µM, first compound 0.316 µM
[16] = second compound 1 µM, first compound 1 µM
[17] = second compound 1 µM, first compound 3.16 µM
[18] = second compound 1 µM, first compound 10 µM
[19] = second compound 3.16 µM, first compound 0.0316 µM
[20] = second compound 3.16 µM, first compound 0.1 µM
[21] = second compound 3.16 µM, first compound 0.316 µM
[22] = second compound 3.16 µM, first compound 1 µM
[23] = second compound 3.16 µM, first compound 3.16 µM
[24] = second compound 3.16 µM, first compound 10 µM
[25] = second compound 10 µM, first compound 0.0316 µM
[26] = second compound 10 µM, first compound 0.1 µM
[27] = second compound 10 µM, first compound 0.316 µM
[28] = second compound 10 µM, first compound 1 µM
[29] = second compound 10 µM, first compound 3.16 µM
[30] = second compound 10 µM, first compound 10 µM
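Wherever viability, T/C is given: viability read after seven days of compound exposure; 100% = DMSO vehicle-treated spheroids so lower means less viable.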

SMILES | IC50 (second compound 0.1 µM) [nM] | IC50 (second compound 0.316 µM) [nM] | IC50 (second compound 1 µM) [nM] | IC50 (second compound 3.16 µM) [nM] | IC50 (second compound 10 µM) [nM] | viability, T/C [1] [%] | viability, T/C [2] [%] | viability, T/C [3] [%] | viability, T/C [4] [%] | viability, T/C [5] [%] | viability, T/C [6] [%] | viability, T/C [7] [%] | viability, T/C [8] [%] | viability, T/C [9] [%] | viability, T/C [10] [%] | viability, T/C [11] [%] | viability, T/C [12] [%] | viability, T/C [13] [%] | viability, T/C [14] [%] | viability, T/C [15] [%] | other results
COC(=O)c1ccc2c(C(=Nc3ccc(N(C)C(=O)CN4CCN(C)CC4)cc3)c3ccccc3)c(O)[nH]c2c1 + C=CC(=O)N1CCN(c2nc(=O)n(-c3c(C)ccnc3C(C)C)c3nc(-c4c(O)cccc4F)c(F)cc23)C(C)C1 | 2130 | 882 | 1570 | 462 | 204 | 95.6 | 93 | 94.4 | 104 | 25.4 | 12.7 | 87.5 | 96.1 | 97.7 | 44.6 | 19.7 | 6.92 | 96 | 92.9 | 102 | viability, T/C [16]: 73%; viability, T/C [17]: 13.7%; viability, T/C [18]: 3.67%; viability, T/C [19]: 96.1%; viability, T/C [20]: 96.8%; viability, T/C [21]: 53.5%; viability, T/C [22]: 33.5%; viability, T/C [23]: 6.72%; viability, T/C [24]: 3.16%; viability, T/C [25]: 56.1%; viability, T/C [26]: 63.4%; viability, T/C [27]: 43.5%; viability, T/C [28]: 12.5%; viability, T/C [29]: 1.11%; viability, T/C [30]: 0.14%
O=C(c1cc(Cc2n[nH]c(=O)c3ccccc23)ccc1F)N1CCN(C(=O)C2CC2)CC1 + C=CC(=O)N1CCN(c2nc(=O)n(-c3c(C)ccnc3C(C)C)c3nc(-c4c(O)cccc4F)c(F)cc23)C(C)C1 | 2020 | 4920 | 6630 | 5740 | 1400 | 108 | 111 | 98.6 | 78 | 31.4 | 22.7 | 105 | 101 | 107 | 96.6 | 60.6 | 33.1 | 96.5 | 96.8 | 103 | viability, T/C [16]: 107%; viability, T/C [17]: 74.6%; viability, T/C [18]: 36.4%; viability, T/C [19]: 95.7%; viability, T/C [20]: 106%; viability, T/C [21]: 101%; viability, T/C [22]: 89.1%; viability, T/C [23]: 67%; viability, T/C [24]: 34.6%; viability, T/C [25]: 78%; viability, T/C [26]: 82.6%; viability, T/C [27]: 68.8%; viability, T/C [28]: 51.4%; viability, T/C [29]: 40.2%; viability, T/C [30]: 17.9%

Reference: PubChem BioAssay AID1963875 (Molecular Pharmacology Branch, DTP, NCI, 2024)
